Consider 14 compounds from publication PMC8162404, “Proteomimetic surface fragments distinguish targets by function” (Chemical Science, 2020).

pKd: −log10 of the molar value.

As a reminder, the pKd is the Kd on a negative log10 scale, so that one unit is a factor of ten.

In experiment [1] the target is T1, CaM (Bos taurus, UniProt P62157).
T1 construct: made in house; host or cells: E. coli BL21 (DE3)
Nature of the experiment: Pull-down assay with immobilized protein and LSM libraries. The format is binding, bovine. The conditions noted are these: H14 library; 1:2 stoichiometry assumed; read-out: Surface mapping KD (apparent). Put shortly: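 CaM buffer was 20 mM HEPES pH 7.4, 150 mM NaCl, 5 mM CaCl2. LSM sublibrary members ([…]) incubated 30 min, RT, with equimolar His-tagged protein on Co-NTA resin. HPLC-MS measured unbound probes; bound fraction relative to resin-only background gave dissociation constants.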

In experiment [2] the target is T2, Gal-1 (Homo sapiens, UniProt P09382).
T2 construct: made in house; host or cells: E. coli BL21(DE3)
T2 sequence (P09382 whole entry): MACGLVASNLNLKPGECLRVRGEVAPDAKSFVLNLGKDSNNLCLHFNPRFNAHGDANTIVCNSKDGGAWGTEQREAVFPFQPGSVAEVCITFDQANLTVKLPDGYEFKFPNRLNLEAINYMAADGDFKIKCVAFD
Described as above. The format is binding. As to conditions: H14 library; 1:1 binding assumed; read-out: Surface mapping KD (apparent). Put shortly:
(§1)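 Buffers were HEPES pH 7.4 with 150 mM NaCl, plus 1 mM TCEP and 1 mM CaCl2 (50 mM HEPES) for S100A4 and S100B, 1 mM TCEP for Gal-1, and no additive for RecQ-WH. Immobilized protein at 64 µM was equilibrated 30 min with the LSM sublibrary, and unbound probes were measured by LC-MS.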

In another experiment the target is T3, S100A4 (Homo sapiens, UniProt P26447).
T3 construct: made in house; host or cells: Escherichia coli BL21(DE3)
T3 sequence (P26447 whole entry): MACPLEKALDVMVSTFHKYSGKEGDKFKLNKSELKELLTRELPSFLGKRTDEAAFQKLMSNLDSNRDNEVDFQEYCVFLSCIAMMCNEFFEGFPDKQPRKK
The experiment is described as above. The format is binding. The conditions noted are these: H14 library; 1:1 binding assumed; read-out: Surface mapping KD (apparent). Put shortly:
as §1

The target of experiment [3] is T4, S100B (Homo sapiens, UniProt P04271).
T4 construct: made in house; host or cells: Escherichia coli BL21(DE3)
T4 sequence (P04271 1-92): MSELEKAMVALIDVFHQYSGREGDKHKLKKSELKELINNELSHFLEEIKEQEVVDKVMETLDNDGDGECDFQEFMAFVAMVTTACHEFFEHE
Described as above. It counts as binding. The conditions noted are these: H14 library; 1:1 binding assumed; read-out: Surface mapping KD (apparent). Put shortly: as §1

Experiment [4] concerns the target T5, RecQ-WH (Escherichia coli, UniProt P15043).
T5 construct: coding for residues 408– 523 of E. coli RecQ; made in house; host or cells: E. coli BL21(DE3)
The description is as above. Set-up: species or system E. coli. As to conditions: H14 library; 1:1 binding assumed; read-out: Surface mapping KD (apparent). The method in brief:
as §1

Experiment [5] concerns the target T4, S100B. As to the kind of experiment: Competition pull-down with native ligand RSK1 (689–735). The format is binding. As to conditions: H14 library; competitor peptide 200 µM; read-out: Surface mapping KD (apparent), competition.
The target in experiment [6] is T5, RecQ-WH. As to the kind of experiment: Competition pull-down with native ligand SSB-Ct8. It counts as binding, E. coli. The conditions noted are these: H14 library; competitor peptide 200 µM; read-out: Surface mapping KD (apparent), competition.
Experiment [7] deals with T2, Gal-1. As to the kind of experiment: Competition pull-down with lactose. As to conditions: H14 library; lactose 10 mM; read-out: Surface mapping KD (apparent), competition. The format is binding. Put shortly: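 His6-tagged proteins immobilized on Co-NTA resin at 64 µM final with 64-member LSM foldamer sublibraries (1 M each, as printed) in pH 7.4 HEPES/NaCl buffers (Ca2+/TCEP per target), 30 min RT; competitor peptides 200 µM final, lactose 10 mM for Gal-1. Bound fractions from LC-MS loss vs protein-free resin; KD assuming 1:1 binding.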

Experiment [8] addresses T1, CaM. Nature of the experiment: Competition pull-down with native ligand TRPV1-Ct15. As to conditions: H14 library; competitor peptide 200 µM; read-out: Surface mapping KD (apparent), competition. The format is binding, bovine.

T5 sequence (P15043 408-523): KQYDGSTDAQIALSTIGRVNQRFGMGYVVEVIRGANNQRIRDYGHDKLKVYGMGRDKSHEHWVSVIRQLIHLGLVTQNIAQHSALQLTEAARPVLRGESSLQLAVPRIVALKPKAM

On to `C[C@@H](CC(=O)N[C@H]1CCCC[C@@H]1C(=O)N[C@H]1CCCC[C@@H]1C(=O)N[C@H](CC(=O)N[C@H]1CCCC[C@@H]1C(N)=O)Cc1ccccc1)NC(=O)[C@H]1CCCC[C@@H]1N` [H14 AF], for which the pKd was 5.30 at CaM [1]; 3.92 at Gal-1 [2]; 4.89 on S100A4; 4.35 at S100B [3]; 3.32 at RecQ-WH [4]; 3.45 at S100B [5]. For the same compound, the pKd on RecQ-WH [6] was 3.34; at Gal-1 [7], 3.48.

Turning to `NC(=O)[C@H]1CCCC[C@@H]1NC(=O)C[C@H](Cc1ccc(O)cc1)NC(=O)[C@H]1CCCC[C@@H]1NC(=O)[C@H]1CCCC[C@@H]1NC(=O)C[C@H](Cc1ccccc1)NC(=O)[C@H]1CCCC[C@@H]1N` [H14 FY], the pKd on CaM [1] was 5.52; on Gal-1 [2], 3.67; at S100A4, 4.24; on S100B [3], 4.02; at RecQ-WH [4], 4.04; at S100B [5], 3.84. For the same compound, the pKd on RecQ-WH [6] is 3.64; at Gal-1 [7], 3.40.

On to `CSCC[C@@H](CC(=O)N[C@H]1CCCC[C@@H]1C(=O)N[C@H]1CCCC[C@@H]1C(=O)N[C@H](CC(=O)N[C@H]1CCCC[C@@H]1C(N)=O)Cc1c[nH]c2ccccc12)NC(=O)[C@H]1CCCC[C@@H]1N` [H14 MW], for which the pKd is 5.70 on CaM [1]; 3.85 on Gal-1 [2]; 4.39 at S100A4; 4.36 on S100B [3]; 3.71 on RecQ-WH [4]; 3.68 on CaM [8]. Besides, the pKd is 3.88 on S100B [5] and 3.76 on Gal-1 [7].

For `CSCC[C@@H](CC(=O)N[C@H]1CCCC[C@@H]1C(=O)N[C@H]1CCCC[C@@H]1C(=O)N[C@H](CC(=O)N[C@H]1CCCC[C@@H]1C(N)=O)Cc1ccc(O)cc1)NC(=O)[C@H]1CCCC[C@@H]1N` [H14 MY], the pKd at CaM [1] was 4.82; on Gal-1 [2], 4.01; at S100A4 it was 4.05; on S100B [3], 3.75; on RecQ-WH [4], 3.58; at CaM [8], 3.40. Further, the pKd is 3.48 on S100B [5] and 3.88 at Gal-1 [7].

Take `NC(=O)[C@H]1CCCC[C@@H]1NC(=O)C[C@H](Cc1c[nH]c2ccccc12)NC(=O)[C@H]1CCCC[C@@H]1NC(=O)[C@H]1CCCC[C@@H]1NC(=O)C[C@H](CO)NC(=O)[C@H]1CCCC[C@@H]1N` [H14 SW]: the negative logarithm of the Kd (pKd) was 4.64 at CaM [1]; 3.82 on Gal-1 [2]; 3.75 at S100A4; 4.10 on S100B [3]; 4.14 at RecQ-WH [4]; 3.34 on S100B [5]. Also, the pKd is 3.58 on RecQ-WH [6] and 3.75 at Gal-1 [7].

For the compound `C[C@@H](O)[C@@H](CC(=O)N[C@H]1CCCC[C@@H]1C(=O)N[C@H]1CCCC[C@@H]1C(=O)N[C@H](CC(=O)N[C@H]1CCCC[C@@H]1C(N)=O)Cc1ccccc1)NC(=O)[C@H]1CCCC[C@@H]1N` [H14 TF], the pKd on CaM [1] was 3.79; on Gal-1 [2], 3.85; on S100A4 it was 4.37; on S100B [3], 4.36; at RecQ-WH [4], 3.39; at CaM [8], 4.03. Moreover, the results for the pKd at S100B [5] and at Gal-1 [7] were 3.53 and 3.66, respectively.

As to `NC(=O)[C@H]1CCCC[C@@H]1NC(=O)C[C@H](CC(=O)O)NC(=O)[C@H]1CCCC[C@@H]1NC(=O)[C@H]1CCCC[C@@H]1NC(=O)C[C@H](Cc1c[nH]c2ccccc12)NC(=O)[C@H]1CCCC[C@@H]1N` [H14 WD], the negative-log Kd (pKd) at CaM [1] is 3.51; at RecQ-WH [4], 3.84; on RecQ-WH [6] it was 3.32.

`NCCCC[C@@H](CC(=O)N[C@H]1CCCC[C@@H]1C(N)=O)NC(=O)[C@H]1CCCC[C@@H]1NC(=O)[C@H]1CCCC[C@@H]1NC(=O)C[C@H](Cc1c[nH]c2ccccc12)NC(=O)[C@H]1CCCC[C@@H]1N` [H14 WK]: the pKd at CaM [1] is 5.96; on Gal-1 [2], 3.58; on S100A4, 3.87; at S100B [3], 4.40; at RecQ-WH [4] it was 3.54; on CaM [8], 3.70. Further, the values for the pKd on S100B [5] and on Gal-1 [7] were 3.39 and 3.60, respectively.

For the compound `N=C(N)NCCC[C@@H](CC(=O)N[C@H]1CCCC[C@@H]1C(N)=O)NC(=O)[C@H]1CCCC[C@@H]1NC(=O)[C@H]1CCCC[C@@H]1NC(=O)C[C@H](Cc1c[nH]c2ccccc12)NC(=O)[C@H]1CCCC[C@@H]1N` [H14 WR], the pKd on CaM [1] was 6.30; on Gal-1 [2], 3.56; on S100A4, 4.09; on S100B [3] it was 4.49; on RecQ-WH [4], 3.57; on CaM [8] it was 3.78. The figures for the negative-log Kd (pKd) on S100B [5] and on Gal-1 [7] were 3.78 and 3.55, respectively.

For the compound `NC(=O)[C@H]1CCCC[C@@H]1NC(=O)C[C@H](CO)NC(=O)[C@H]1CCCC[C@@H]1NC(=O)[C@H]1CCCC[C@@H]1NC(=O)C[C@H](Cc1c[nH]c2ccccc12)NC(=O)[C@H]1CCCC[C@@H]1N` [H14 WS], the pKd is 5.05 on CaM [1]; 3.33 on Gal-1 [2]; 3.75 at S100A4; 3.86 on S100B [3]; 3.68 on RecQ-WH [4]; 3.51 on CaM [8]. The pKd is 3.36 on S100B [5] and 3.45 on RecQ-WH [6].

Consider `CC[C@H](C)[C@@H](CC(=O)N[C@H]1CCCC[C@@H]1C(N)=O)NC(=O)[C@H]1CCCC[C@@H]1NC(=O)[C@H]1CCCC[C@@H]1NC(=O)C[C@H](Cc1ccc(O)cc1)NC(=O)[C@H]1CCCC[C@@H]1N` [H14 YI], for which the pKd at CaM [1] was 5.70; at Gal-1 [2], 3.83; at S100A4, 4.72; at S100B [3], 4.21; at RecQ-WH [4] it was 3.82; at CaM [8] it was 3.37. Moreover, the pKd on S100B [5] is 3.70; on Gal-1 [7] it was 3.59.

`CC(C)C[C@@H](CC(=O)N[C@H]1CCCC[C@@H]1C(N)=O)NC(=O)[C@H]1CCCC[C@@H]1NC(=O)[C@H]1CCCC[C@@H]1NC(=O)C[C@H](Cc1ccc(O)cc1)NC(=O)[C@H]1CCCC[C@@H]1N` [H14 YL]: the pKd at CaM [1] was 5.70; on Gal-1 [2] it was 3.83; at S100A4, 4.72; at S100B [3], 4.21; on RecQ-WH [4], 3.82; on CaM [8] it was 3.37. Moreover, the pKd is 3.70 at S100B [5] and 3.59 on Gal-1 [7].

Turning to `CSCC[C@@H](CC(=O)N[C@H]1CCCC[C@@H]1C(N)=O)NC(=O)[C@H]1CCCC[C@@H]1NC(=O)[C@H]1CCCC[C@@H]1NC(=O)C[C@H](Cc1ccc(O)cc1)NC(=O)[C@H]1CCCC[C@@H]1N` [H14 YM], the pKd was 5.15 on CaM [1]; 4.01 on Gal-1 [2]; 4.05 at S100A4; 3.75 at S100B [3]; 3.58 on RecQ-WH [4]; 3.40 at CaM [8]. In addition, the pKd on S100B [5] is 3.46; on Gal-1 [7], 3.88.

As to `NC(=O)[C@H]1CCCC[C@@H]1NC(=O)C[C@H](Cc1ccc(O)cc1)NC(=O)[C@H]1CCCC[C@@H]1NC(=O)[C@H]1CCCC[C@@H]1NC(=O)C[C@H](Cc1ccc(O)cc1)NC(=O)[C@H]1CCCC[C@@H]1N` [H14 YY], the pKd was 5.15 at CaM [1]; 3.43 on Gal-1 [2]; 4.15 on S100A4; 3.92 on S100B [3]; 3.94 on RecQ-WH [4]; 3.41 at S100B [5]. Further, the pKd on RecQ-WH [6] is 3.53.
